Columns and labels:
Test in all cases: Example B2 herbicidal action, post-emergence, pots in glasshouse, damage score 0-10
Type in all cases: in vivo
Details in all cases: application post-emergence, rate 1000 g/ha, evaluated after 13 days
Echinochloa crus-galli = tested on: Echinochloa crus-galli
Method in brief: (§1)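 Pot-grown plants were sprayed post-emergence at 8 days with active ingredient in aqueous spray derived from acetone/water (50:50) containing 0.5% Tween 20. Glasshouse conditions were 24/16° C day/night, 14 h light and 65% humidity, with watering twice daily. Damage was scored 13 days after spraying.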

Amaranthus retroflexus = tested on: Amaranthus retroflexus
Method in brief: as §1

Ipomea hederaceae = tested on: Ipomea hederaceae
Method in brief: as §1

Setaria faberi = tested on: Setaria faberi
Method in brief: as §1

Solanum nigrum = tested on: Solanum nigrum
Method in brief: as §1

SMILES	ECHCG damage score (10=total damage to plant; 0=no damage to plant) (Echinochloa crus-galli)	AMARE damage score (10=total damage to plant; 0=no damage to plant) (Amaranthus retroflexus)	IPOHE damage score (10=total damage to plant; 0=no damage to plant) (Ipomea hederaceae)	SETFA damage score (10=total damage to plant; 0=no damage to plant) (Setaria faberi)	SOLNI damage score (10=total damage to plant; 0=no damage to plant) (Solanum nigrum)
CCN1c2nccnc2C(OC(=O)C(C)C)=C(c2cc(I)ccc2Cl)S1(=O)=O [Compound C51]	1	5	6	0	7
CCN1c2nccnc2C(O)=C(c2cc(C(F)(F)F)ccc2Br)S1(=O)=O [Compound D35]	1	8	10	4	9
CCN1c2nccnc2C(OC(=O)C(C)(C)C)=C(c2ccc(Cl)cc2C(F)(F)F)S1(=O)=O [Compound C15]	7	9	8	2	9
CC(C)C(=O)OC1=C(c2c(F)ccc(Cl)c2Cl)S(=O)(=O)N(CC(F)F)c2nccnc21 [Compound C36]	7	9	10	3	9
CCSC(=O)OC1=C(c2c(F)ccc(Cl)c2Cl)S(=O)(=O)N(CC(F)F)c2nccnc21 [Compound C32]	7	8	9	1	8
CCN1c2nccnc2C(OC(=O)C(C)(C)C)=C(c2c(F)ccc(OC)c2Cl)S1(=O)=O [Compound C24]	4	2	9	0	9
CCN1c2nccnc2C(OC(=O)C(C)C)=C(c2c(Cl)ccc(Cl)c2C(F)(F)F)S1(=O)=O [Compound C50]	5	5	7	4	6
COCN1c2nccnc2C(OC(=O)C(C)C)=C(c2ccc(Cl)cc2Cl)S1(=O)=O [Compound C27]	3	7	6	6	9
CC(C)C(=O)OC1=C(c2ccc(Cl)cc2Cl)S(=O)(=O)N(CC(F)(F)C(F)F)c2nccnc21 [Compound C122]	2	5	6	3	9
CCSC(=O)OC1=C(c2cccc(Cl)c2Cl)S(=O)(=O)N(CC)c2nccnc21 [Compound C99]	2	3	3	1	8
CSC(=O)OC1=C(c2ccc(Br)cc2C(F)(F)F)S(=O)(=O)N(CC(F)F)c2nccnc21 [Compound C133]	8	10	8	7	10
CC(C)(C)C(=O)OC1=C(c2ccccc2OC(F)(F)F)S(=O)(=O)N(CC(F)F)c2nccnc21 [Compound C21]	6	7	9	4	10
CCSC(=O)OC1=C(c2c(Cl)ccc(Cl)c2C(F)(F)F)S(=O)(=O)N(CC(F)F)c2nccnc21 [Compound C103]	7	8	6	6	9
CCSC(=O)OC1=C(c2cc(C(F)(F)F)ccc2Cl)S(=O)(=O)N(C)c2nccnc21 [Compound C89]	6	7	9	1	10
Cc1ccc(C(F)(F)F)c(C2=C(OC(=O)C(C)C)c3nccnc3N(CC(F)F)S2(=O)=O)c1 [Compound C146]	4	8	9	2	7
CCN1c2nccnc2C(OC(=O)C(C)C)=C(c2ccccc2C(F)(F)F)S1(=O)=O [Compound C63]	7	9	10	7	9
CCSC(=O)OC1=C(c2cc(Cl)ccc2C(F)(F)F)S(=O)(=O)N(CC(F)F)c2nccnc21 [Compound C112]	6	10	9	6	10
O=S1(=O)C(c2c(F)ccc(-c3cccc(Cl)c3)c2Cl)=C(O)c2nccnc2N1CC(F)F [Compound D20]	1	3	6	1	5
CC(C)C(=O)OC1=C(c2cc(C(F)(F)F)ccc2Cl)S(=O)(=O)N(C)c2nccnc21 [Compound C90]	2	8	9	1	10
Cc1ccc(C(F)(F)F)c(C2=C(O)c3nccnc3N(CC(F)F)S2(=O)=O)c1 [Compound D41]	1	9	9	2	10
C=CCN1c2nccnc2C(OC(=O)C(C)(C)C)=C(c2cc(Cl)ccc2C(F)(F)F)S1(=O)=O [Compound C118]	5	6	4	4	8
O=S1(=O)C(c2c(Br)cccc2Br)=C(O)c2nccnc2N1CC(F)F [Compound D28]	8	10	8	8	9
CC(C)C(=O)OC1=C(c2c(Br)cccc2Br)S(=O)(=O)N(CC(F)F)c2nccnc21 [Compound C49]	8	9	9	6	9
CCSC(=O)OC1=C(c2c(Cl)ccc(Cl)c2Cl)S(=O)(=O)N(CC)c2nccnc21 [Compound C71]	6	8	10	1	9
CC(C)(C)C(=O)OC1=C(c2cc(C(F)(F)F)ccc2C(F)(F)F)S(=O)(=O)N(CC(F)F)c2nccnc21 [Compound C44]	9	10	10	6	10
CC(C)(C)C(=O)OC1=C(c2ccc(I)cc2Cl)S(=O)(=O)N(CC(F)F)c2nccnc21 [Compound C141]	2	7	7	0	8

— US8133849B2, “Herbicidal compounds” (Syngenta Limited, priority 2007, dated 2012)
